Experimental data: US8415469B2, “Compounds and methods for kinase modulation, and indications therefor” (Plexxikon Inc., priority 2005, dated 2013)

Experiments:
Format in all cases: biochemical
Kdr = molecular target: T1, Kdr (Homo sapiens, UniProt P35968); assay: Z'-Lyte FRET kinase assay (Invitrogen), Kdr; conditions: read-out: IC50, activity toward kinase Kdr
T1 construct: purchased Invitrogen (assay run by Invitrogen)

B-Raf V600E = molecular target: T2, B-Raf V600E (Homo sapiens, UniProt P15056, V600E); assay: AlphaScreen kinase assay, B-Raf V600E; conditions: read-out: IC50, activity toward kinase B-Raf V600E
T2 construct: P4254. pFastBacBD-CDC37 BRAF D437-K722-X, V600E; His6 with pFastBac HT leader (TEV site) (N); made in house; host or cells: Sf9 (baculovirus; chaperone CDC37 co-expressed)
T2 sequence (P15056 with tags, fused parts or gaps V600E): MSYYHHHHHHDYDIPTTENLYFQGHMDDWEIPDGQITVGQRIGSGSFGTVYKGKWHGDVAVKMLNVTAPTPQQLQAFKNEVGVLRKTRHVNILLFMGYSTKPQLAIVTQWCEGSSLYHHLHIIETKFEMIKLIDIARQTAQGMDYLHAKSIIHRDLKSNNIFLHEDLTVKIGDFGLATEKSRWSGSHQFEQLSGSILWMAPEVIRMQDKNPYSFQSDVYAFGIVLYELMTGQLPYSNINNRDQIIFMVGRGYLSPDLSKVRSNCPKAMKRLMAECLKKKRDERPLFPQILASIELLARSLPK

Stk6 = molecular target: T3, Stk6 (Homo sapiens, UniProt O14965); assay: Z'-Lyte FRET kinase assay (Invitrogen), Stk6; conditions: read-out: IC50, activity toward kinase Stk6
T3 construct: purchased Invitrogen (Carlsbad, Calif.), screening service
T3 sequence (O14965 1-403): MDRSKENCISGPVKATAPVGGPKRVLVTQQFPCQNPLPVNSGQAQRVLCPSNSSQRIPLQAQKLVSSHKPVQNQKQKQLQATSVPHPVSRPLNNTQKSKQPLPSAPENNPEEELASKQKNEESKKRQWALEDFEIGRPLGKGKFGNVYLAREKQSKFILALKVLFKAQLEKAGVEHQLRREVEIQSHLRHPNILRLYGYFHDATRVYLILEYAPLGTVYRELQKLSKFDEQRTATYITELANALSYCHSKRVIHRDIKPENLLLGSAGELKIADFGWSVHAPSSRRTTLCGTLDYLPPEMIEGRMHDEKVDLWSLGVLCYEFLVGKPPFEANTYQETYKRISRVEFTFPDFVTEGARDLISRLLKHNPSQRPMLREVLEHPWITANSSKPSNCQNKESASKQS

Ret = molecular target: T4, Ret (Homo sapiens, UniProt P07949); assay: AlphaScreen kinase assay, Ret; conditions: read-out: IC50, activity toward kinase Ret
T4 construct: P1378.pET-SF BI-PTP RET H661-R1012 HIS; made in house
T4 sequence (P07949 with tags, fused parts or gaps): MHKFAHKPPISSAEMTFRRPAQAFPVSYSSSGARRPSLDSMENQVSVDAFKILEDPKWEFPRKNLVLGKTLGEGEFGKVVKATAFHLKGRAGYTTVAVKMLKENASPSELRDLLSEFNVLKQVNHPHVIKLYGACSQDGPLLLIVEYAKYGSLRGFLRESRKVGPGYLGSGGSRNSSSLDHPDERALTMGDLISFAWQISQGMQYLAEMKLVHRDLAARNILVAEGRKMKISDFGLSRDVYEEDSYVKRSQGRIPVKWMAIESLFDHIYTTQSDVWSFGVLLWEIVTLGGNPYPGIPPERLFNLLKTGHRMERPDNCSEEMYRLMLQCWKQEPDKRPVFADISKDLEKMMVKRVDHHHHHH

Fak = molecular target: T5, Fak (Homo sapiens, UniProt Q05397); assay: AlphaScreen kinase assay, Fak; conditions: read-out: IC50, activity toward kinase Fak
T5 construct: P1358.pFastBacHtb FAK S411-Q686-X; His6 with pFastBacHTb leader (TEV site) (N); made in house; host or cells: Sf9 (baculovirus)
T5 sequence (Q05397 411-686): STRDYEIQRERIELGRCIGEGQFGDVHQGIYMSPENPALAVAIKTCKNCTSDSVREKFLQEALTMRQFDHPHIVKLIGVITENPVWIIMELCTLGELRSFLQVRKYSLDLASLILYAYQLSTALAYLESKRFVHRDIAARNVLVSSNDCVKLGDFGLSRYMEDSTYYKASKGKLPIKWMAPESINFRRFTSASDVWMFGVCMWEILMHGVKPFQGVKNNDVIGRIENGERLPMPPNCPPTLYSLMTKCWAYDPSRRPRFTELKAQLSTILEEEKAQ

Kit = molecular target: T6, Kit (Homo sapiens, UniProt P10721); assay: AlphaScreen kinase assay, Kit; conditions: read-out: IC50, activity toward kinase Kit
T6 construct: P1332.N6 BI PTP KIT M552-K948-X COD; His6 (N); made in house; host or cells: E. coli (PTP1B co-expressed)
T6 sequence (P10721 with tags, fused parts or gaps): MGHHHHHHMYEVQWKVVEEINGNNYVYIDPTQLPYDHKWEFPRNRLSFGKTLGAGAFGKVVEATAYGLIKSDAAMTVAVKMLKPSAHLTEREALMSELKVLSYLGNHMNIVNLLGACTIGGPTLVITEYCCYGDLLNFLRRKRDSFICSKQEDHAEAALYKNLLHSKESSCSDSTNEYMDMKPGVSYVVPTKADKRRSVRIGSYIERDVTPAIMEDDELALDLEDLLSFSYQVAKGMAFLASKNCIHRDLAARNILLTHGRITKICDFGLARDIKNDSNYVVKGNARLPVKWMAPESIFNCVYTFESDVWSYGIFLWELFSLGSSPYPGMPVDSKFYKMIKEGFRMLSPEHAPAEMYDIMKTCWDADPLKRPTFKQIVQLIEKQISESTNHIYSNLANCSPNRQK

B-Raf = molecular target: T7, B-Raf (Homo sapiens, UniProt P15056); assay: AlphaScreen kinase assay, B-Raf; conditions: read-out: IC50, activity toward kinase B-Raf
T7 construct: purchased Upstate Biotechnology
T7 sequence (P15056 whole entry): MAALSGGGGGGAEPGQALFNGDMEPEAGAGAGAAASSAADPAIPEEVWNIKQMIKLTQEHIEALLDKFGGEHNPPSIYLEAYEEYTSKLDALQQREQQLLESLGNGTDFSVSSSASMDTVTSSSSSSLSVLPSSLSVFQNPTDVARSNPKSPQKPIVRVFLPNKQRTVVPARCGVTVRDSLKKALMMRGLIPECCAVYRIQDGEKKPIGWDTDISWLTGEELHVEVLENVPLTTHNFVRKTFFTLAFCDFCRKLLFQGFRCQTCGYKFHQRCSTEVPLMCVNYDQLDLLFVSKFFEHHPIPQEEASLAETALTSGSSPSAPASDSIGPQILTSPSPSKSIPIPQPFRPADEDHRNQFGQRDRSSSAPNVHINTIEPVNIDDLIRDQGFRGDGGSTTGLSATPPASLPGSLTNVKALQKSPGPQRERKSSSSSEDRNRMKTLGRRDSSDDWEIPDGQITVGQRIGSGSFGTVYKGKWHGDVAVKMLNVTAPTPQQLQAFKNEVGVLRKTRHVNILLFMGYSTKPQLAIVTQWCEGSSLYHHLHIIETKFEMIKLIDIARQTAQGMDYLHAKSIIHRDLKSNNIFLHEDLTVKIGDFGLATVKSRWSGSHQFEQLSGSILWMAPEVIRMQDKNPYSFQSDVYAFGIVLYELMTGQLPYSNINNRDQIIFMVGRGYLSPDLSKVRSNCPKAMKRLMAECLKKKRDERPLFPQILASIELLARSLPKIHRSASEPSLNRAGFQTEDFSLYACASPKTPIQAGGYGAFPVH

Jnk3 = molecular target: T8, Jnk3 (Homo sapiens, UniProt P53779); assay: AlphaScreen kinase assay, Jnk3; conditions: read-out: IC50, activity toward kinase Jnk3
T8 construct: purchased Upstate Biotechnology
T8 sequence (P53779 whole entry): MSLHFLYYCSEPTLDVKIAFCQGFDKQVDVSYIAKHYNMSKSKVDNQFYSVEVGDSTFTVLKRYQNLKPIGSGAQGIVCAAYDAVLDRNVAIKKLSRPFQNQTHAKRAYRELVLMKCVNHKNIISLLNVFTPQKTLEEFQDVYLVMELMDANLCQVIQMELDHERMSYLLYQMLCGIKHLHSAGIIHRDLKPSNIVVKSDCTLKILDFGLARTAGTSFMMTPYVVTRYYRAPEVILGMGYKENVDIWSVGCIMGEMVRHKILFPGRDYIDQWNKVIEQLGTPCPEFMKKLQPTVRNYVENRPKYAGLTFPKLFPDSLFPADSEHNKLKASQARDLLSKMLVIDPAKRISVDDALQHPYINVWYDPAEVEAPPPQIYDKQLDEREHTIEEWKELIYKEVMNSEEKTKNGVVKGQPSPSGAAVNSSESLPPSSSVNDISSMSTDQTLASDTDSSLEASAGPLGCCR

FGFR1 = molecular target: T9, FGFR1 (Homo sapiens, UniProt P11362, C488A/C584S); assay: AlphaScreen kinase assay, FGFR1; conditions: read-out: IC50, activity toward kinase FGFR
T9 construct: P1351.pET N6 BI-PTP FGFR A458-E765-X C488A, C584S; made in house; host or cells: E. coli (PTP1B co-expressed)
T9 sequence (P11362 458-765 C488A/C584S): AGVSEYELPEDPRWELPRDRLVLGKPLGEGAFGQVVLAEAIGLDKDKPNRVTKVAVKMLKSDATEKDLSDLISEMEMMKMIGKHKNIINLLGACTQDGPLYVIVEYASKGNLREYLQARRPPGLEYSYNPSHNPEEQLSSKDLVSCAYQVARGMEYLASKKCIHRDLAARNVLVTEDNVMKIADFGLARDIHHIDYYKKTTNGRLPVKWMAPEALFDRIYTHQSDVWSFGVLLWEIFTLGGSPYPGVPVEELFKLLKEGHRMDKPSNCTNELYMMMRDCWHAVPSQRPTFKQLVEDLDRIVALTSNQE

Fms = molecular target: T10, Fms (Homo sapiens, UniProt P07333); assay: AlphaScreen kinase assay, Fms; conditions: read-out: IC50, activity toward kinase Fms
T10 construct: purchased Upstate Biotechnology
T10 sequence (P07333 20-972): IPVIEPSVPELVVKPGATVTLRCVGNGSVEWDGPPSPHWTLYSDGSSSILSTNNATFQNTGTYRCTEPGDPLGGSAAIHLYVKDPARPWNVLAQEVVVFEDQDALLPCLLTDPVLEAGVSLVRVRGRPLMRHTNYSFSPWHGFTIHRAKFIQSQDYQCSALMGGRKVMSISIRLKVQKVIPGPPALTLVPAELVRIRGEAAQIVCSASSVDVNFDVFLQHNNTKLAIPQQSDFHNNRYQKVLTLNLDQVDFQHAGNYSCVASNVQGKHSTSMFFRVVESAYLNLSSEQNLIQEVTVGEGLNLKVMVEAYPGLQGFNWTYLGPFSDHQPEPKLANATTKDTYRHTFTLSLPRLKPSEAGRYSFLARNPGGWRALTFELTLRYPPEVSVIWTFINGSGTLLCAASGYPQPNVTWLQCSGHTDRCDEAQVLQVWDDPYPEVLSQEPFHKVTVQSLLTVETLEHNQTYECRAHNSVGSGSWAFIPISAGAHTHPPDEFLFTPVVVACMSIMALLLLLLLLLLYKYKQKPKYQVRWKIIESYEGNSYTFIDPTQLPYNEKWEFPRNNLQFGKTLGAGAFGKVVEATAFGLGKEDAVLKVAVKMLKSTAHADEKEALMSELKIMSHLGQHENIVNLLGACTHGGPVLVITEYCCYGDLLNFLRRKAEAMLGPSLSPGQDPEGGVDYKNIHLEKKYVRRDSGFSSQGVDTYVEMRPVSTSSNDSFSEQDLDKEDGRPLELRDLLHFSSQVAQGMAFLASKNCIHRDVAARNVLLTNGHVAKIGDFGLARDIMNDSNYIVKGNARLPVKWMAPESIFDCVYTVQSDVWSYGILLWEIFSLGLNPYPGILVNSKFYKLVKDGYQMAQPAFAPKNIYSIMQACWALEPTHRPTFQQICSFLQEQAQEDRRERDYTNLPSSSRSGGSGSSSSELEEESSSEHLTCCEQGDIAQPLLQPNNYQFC

T1 sequence (P35968 20-1356): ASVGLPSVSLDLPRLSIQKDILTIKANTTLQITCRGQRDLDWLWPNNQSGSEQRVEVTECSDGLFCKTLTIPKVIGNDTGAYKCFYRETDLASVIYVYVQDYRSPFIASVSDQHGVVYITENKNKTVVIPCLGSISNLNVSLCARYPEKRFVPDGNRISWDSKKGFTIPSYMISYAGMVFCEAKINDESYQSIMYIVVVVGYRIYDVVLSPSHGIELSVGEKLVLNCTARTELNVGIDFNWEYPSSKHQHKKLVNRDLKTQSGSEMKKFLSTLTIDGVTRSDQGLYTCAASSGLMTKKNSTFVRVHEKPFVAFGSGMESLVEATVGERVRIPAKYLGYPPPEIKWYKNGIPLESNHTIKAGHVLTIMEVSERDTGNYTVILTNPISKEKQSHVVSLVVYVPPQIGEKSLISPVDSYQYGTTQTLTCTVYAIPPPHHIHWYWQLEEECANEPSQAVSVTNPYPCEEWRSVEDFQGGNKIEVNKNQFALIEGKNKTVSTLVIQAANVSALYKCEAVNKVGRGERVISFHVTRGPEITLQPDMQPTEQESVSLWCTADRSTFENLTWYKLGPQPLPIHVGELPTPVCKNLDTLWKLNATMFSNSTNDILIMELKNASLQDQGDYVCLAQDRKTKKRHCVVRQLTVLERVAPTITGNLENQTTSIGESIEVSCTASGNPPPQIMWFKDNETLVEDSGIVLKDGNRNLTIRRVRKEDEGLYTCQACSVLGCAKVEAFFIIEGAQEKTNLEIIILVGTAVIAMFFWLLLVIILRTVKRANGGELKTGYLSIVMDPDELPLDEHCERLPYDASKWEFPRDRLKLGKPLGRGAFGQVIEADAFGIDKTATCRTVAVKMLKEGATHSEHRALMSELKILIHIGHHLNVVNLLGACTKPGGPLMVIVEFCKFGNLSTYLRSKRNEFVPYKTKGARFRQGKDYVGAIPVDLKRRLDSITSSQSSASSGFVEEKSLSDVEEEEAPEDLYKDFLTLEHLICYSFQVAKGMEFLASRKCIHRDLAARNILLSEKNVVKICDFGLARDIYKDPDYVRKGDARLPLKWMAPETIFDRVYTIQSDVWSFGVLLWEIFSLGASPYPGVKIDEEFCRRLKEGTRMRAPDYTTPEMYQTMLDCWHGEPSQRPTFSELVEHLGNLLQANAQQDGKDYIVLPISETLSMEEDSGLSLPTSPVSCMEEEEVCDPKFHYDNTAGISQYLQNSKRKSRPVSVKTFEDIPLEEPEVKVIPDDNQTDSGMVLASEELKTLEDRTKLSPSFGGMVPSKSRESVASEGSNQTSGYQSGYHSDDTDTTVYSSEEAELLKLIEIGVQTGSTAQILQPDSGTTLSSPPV

Row | SMILES | IC50 (Kdr) | IC50 (B-Raf V600E) | IC50 (Stk6) | further results
1 | Cn1cccc1C(=O)c1c[nH]c2ncccc12 [Compound P-0147] | ≤ 10 µM | ≤ 10 µM | ≤ 10 µM | –
2 | OCc1cccc(-c2ccnc3[nH]cc(Sc4cccs4)c23)c1 [Compound P-0071] | ≤ 10 µM | ≤ 10 µM | ≤ 10 µM | IC50 (Ret): ≤ 10 µM
3 | O=C(c1c[nH]c2ncccc12)C1CCCCC1 [Compound P-0407] | – | – | ≤ 10 µM | –
4 | COc1cccc(C(=O)c2ccc(-c3cnc4[nH]ccc4c3)s2)c1 [Compound P-0494] | – | – | – | IC50 (Fak): ≤ 10 µM
5 | O=C1c2ccccc2C(=O)N1Cc1ccc(-c2cnc3[nH]ccc3c2)cc1 [Compound P-0281] | – | – | ≤ 10 µM | –
6 | Cc1cc(C(=O)c2c[nH]c3nccc(-c4cccc(/C=C/C(=O)O)c4)c23)n(C)n1 [Compound P-0469] | – | – | ≤ 10 µM | IC50 (Ret): ≤ 10 µM
7 | COc1ccc(CCCc2c[nH]c3ncccc23)cc1 [Compound P-0437] | – | – | – | IC50 (Fak): ≤ 10 µM
8 | Fc1ccc(-c2c(CSCc3ccco3)[nH]c3ncccc23)cc1 [Compound P-0064] | ≤ 10 µM | – | ≤ 10 µM | IC50 (Kit): ≤ 10 µM; IC50 (Ret): ≤ 10 µM
9 | COC(c1c(F)ccc(N(Cc2ccccc2)Cc2ccccc2)c1F)c1c[nH]c2ncc(-c3cccnc3)cc12 (stereo not shown) [Compound P-0143] | ≤ 10 µM | – | ≤ 10 µM | IC50 (B-Raf): ≤ 10 µM
10 | CC(=O)c1cccc(-c2cnc3[nH]ccc3c2)c1 [Compound P-0080] | – | – | ≤ 10 µM | IC50 (Jnk3): ≤ 10 µM
11 | COc1cccc(-c2cnc3[nH]cc(Sc4cccs4)c3c2)c1 [Compound P-0417] | – | – | ≤ 10 µM | –
12 | CC(=O)c1cccc(-c2ccnc3[nH]cc(Sc4cccs4)c23)c1 [Compound P-0092] | ≤ 10 µM | ≤ 10 µM | ≤ 10 µM | –
13 | O=C(O)/C=C/c1cccc(-c2ccnc3[nH]cc(C(=O)c4ccc(Cl)cc4)c23)c1 [Compound P-0100] | ≤ 10 µM | ≤ 10 µM | ≤ 10 µM | IC50 (Ret): ≤ 10 µM
14 | COc1cccc(-c2ccnc3[nH]cc(Sc4cccs4)c23)c1 [Compound P-0160] | – | ≤ 10 µM | ≤ 10 µM | –
15 | O=C(O)/C=C/c1cccc(-c2ccnc3[nH]cc(C(=O)c4cccc(Cl)c4Cl)c23)c1 [Compound P-0110] | ≤ 10 µM | ≤ 10 µM | ≤ 10 µM | IC50 (Ret): ≤ 10 µM
16 | c1ccc(Nc2c[nH]c3ncccc23)cc1 [Compound P-0221, N-phenyl-1H-pyrrolo[2,3-b]pyridin-3-amine] | – | – | ≤ 10 µM | –
17 | O=C(c1ccc(Nc2cccc(O)c2)nc1)c1c[nH]c2ncccc12 [Compound P-0189] | ≤ 10 µM | – | ≤ 10 µM | IC50 (Jnk3): ≤ 10 µM; IC50 (FGFR1): ≤ 10 µM; IC50 (Fms): ≤ 10 µM
18 | O=C(c1ccc(Oc2cc(Cl)cc(Cl)c2)o1)c1c[nH]c2ncccc12 [Compound P-0295] | ≤ 10 µM | ≤ 10 µM | ≤ 10 µM | –
19 | CN(c1ccccc1)c1ccnc2[nH]ccc12 [Compound P-0118] | – | ≤ 10 µM | ≤ 10 µM | –
20 | O=C(O)/C=C/c1ccc(-c2ccnc3[nH]ccc23)cc1 [Compound P-0203] | ≤ 10 µM | – | ≤ 10 µM | –
21 | Cn1nc(C(C)(C)C)cc1C(=O)c1c[nH]c2nccc(-c3cccc(/C=C/C(=O)O)c3)c12 [Compound P-0546] | – | – | ≤ 10 µM | –
22 | Cc1[nH]c2ncccc2c1-c1ccc(C(C)C)cc1 [Compound P-1083] | – | – | – | IC50 (Fak): ≤ 10 µM
23 | OC(c1ccc(NCc2ccc(Cl)cc2)nc1)c1c[nH]c2ncccc12 (stereo not shown) [Compound P-0261] | ≤ 10 µM | ≤ 10 µM | ≤ 10 µM | –
24 | O=C(c1ccc(NCC2CCCCC2)nc1)c1c[nH]c2ncccc12 [Compound P-0471] | – | – | ≤ 10 µM | –
25 | c1csc(-c2c[nH]c3ncccc23)c1 [Compound P-0253] | – | – | ≤ 10 µM | IC50 (Kit): ≤ 10 µM
26 | CC(C)CNc1ccc(C(O)c2c[nH]c3ncccc23)cn1 (stereo not shown) [Compound P-0185] | – | ≤ 10 µM | ≤ 10 µM | –
27 | c1coc(CNCc2c[nH]c3ncccc23)c1 [Compound P-0322] | ≤ 10 µM | – | ≤ 10 µM | –

Row | SMILES | IC50 (Kdr) | IC50 (B-Raf V600E) | IC50 (Stk6) | further results
28 | CC(C)CNc1ccc(C(=O)c2c[nH]c3ncccc23)cn1 [Compound P-0251] | – | – | ≤ 10 µM | –
29 | Cc1ccc(S(=O)(=O)Nc2ccc(Cc3c[nH]c4ncccc34)cc2)cc1 [Compound P-0426] | – | – | ≤ 10 µM | IC50 (FGFR1): ≤ 10 µM
30 | c1ccc(-c2cnc3[nH]ccc3c2)cc1 [Compound P-0279] | ≤ 10 µM | – | ≤ 10 µM | IC50 (Jnk3): ≤ 10 µM; IC50 (Kit): ≤ 10 µM
31 | c1cnc2[nH]cc(-c3ccoc3)c2c1 [Compound P-0260] | ≤ 10 µM | – | ≤ 10 µM | –
32 | COc1ccccc1Cc1c[nH]c2ncccc12 [Compound P-0406] | – | – | ≤ 10 µM | –
33 | O=C(c1ccc(Nc2cccc(OCc3ccccc3)c2)nc1)c1c[nH]c2ncccc12 [Compound P-0355] | – | ≤ 10 µM | ≤ 10 µM | –
34 | c1coc(-c2ccnc3[nH]ccc23)c1 [Compound P-0445] | – | – | ≤ 10 µM | –
35 | c1coc(-c2nc(-c3ccnc4[nH]ccc34)no2)c1 [Compound P-0319] | ≤ 10 µM | – | ≤ 10 µM | –
36 | Cc1ccc(Sc2c[nH]c3nccc(-c4cccc(CO)c4)c23)cc1 [Compound P-0250] | – | – | ≤ 10 µM | IC50 (Ret): ≤ 10 µM
37 | Cc1ccccc1-c1ccnc2[nH]cc(Sc3cccs3)c12 [Compound P-0441] | – | ≤ 10 µM | ≤ 10 µM | –
38 | N#Cc1ccnc2[nH]cc(Sc3cccs3)c12 [Compound P-0370] | – | – | ≤ 10 µM | –
39 | c1ccc(COc2cccc(Cc3c[nH]c4ncc(-c5ccsc5)cc34)c2)cc1 [Compound P-0132] | – | – | ≤ 10 µM | IC50 (Jnk3): ≤ 10 µM; IC50 (FGFR1): ≤ 10 µM; IC50 (Kit): ≤ 10 µM
40 | Cc1ccc(-c2ccnc3[nH]cc(Sc4cccs4)c23)cc1[N+](=O)[O-] [Compound P-0199] | ≤ 10 µM | ≤ 10 µM | ≤ 10 µM | –
41 | Fc1cccc(-c2ccnc3[nH]ccc23)c1 [Compound P-0225] | ≤ 10 µM | – | ≤ 10 µM | –
42 | Cc1ccsc1Cc1c[nH]c2ncccc12 [Compound P-0191] | – | ≤ 10 µM | ≤ 10 µM | –
43 | CC(C)CCc1c[nH]c2ncccc12 [Compound P-0797] | – | – | – | IC50 (Fak): ≤ 10 µM
44 | Clc1ccnc2[nH]cc(Sc3cccs3)c12 [Compound P-0489] | – | – | ≤ 10 µM | IC50 (FGFR1): ≤ 10 µM
45 | COc1cccc(NC(=S)N2CCC(C(=O)c3c[nH]c4ncccc34)CC2)c1 [Compound P-0208] | – | ≤ 10 µM | ≤ 10 µM | –
46 | O=C(c1cccc(F)c1)c1ccc(-c2cnc3[nH]ccc3c2)s1 [Compound P-0235] | – | – | ≤ 10 µM | IC50 (Kit): ≤ 10 µM
47 | Cc1[nH]c2ncccc2c1-c1ccco1 [Compound P-1190] | – | – | – | IC50 (Fak): ≤ 10 µM
48 | Fc1cccc(-c2ccnc3[nH]cc(Sc4cccs4)c23)c1 [Compound P-0181] | – | ≤ 10 µM | ≤ 10 µM | IC50 (Ret): ≤ 10 µM
49 | Brc1c[nH]c2ncccc12 [Compound P-0201] | – | – | ≤ 10 µM | –
50 | c1cc2cc(-c3ccoc3)cnc2[nH]1 [Compound P-0372] | – | – | ≤ 10 µM | –
51 | FC(F)(F)c1cccc(-c2ccnc3[nH]cc(Sc4ccccn4)c23)c1 [Compound P-0290] | – | – | ≤ 10 µM | –
52 | Cc1cccc(N(C)c2ccnc3[nH]ccc23)c1 [Compound P-0155] | – | – | ≤ 10 µM | –
53 | COc1ccc(-c2c(CSCC(C)C)[nH]c3ncccc23)cc1 [Compound P-0313] | – | – | ≤ 10 µM | IC50 (Jnk3): ≤ 10 µM
